The record followed here is PubChem BioAssay (NCI).

Among the test systems are SN12C renal; 786-0 renal; A498 renal; SK-OV-3 ovarian; NCI-H23 lung; CCRF-CEM leukemia; K-562 leukemia; UACC-257 melanoma; T-47D breast; TK-10 renal; SK-MEL-2 melanoma; HS 578T breast.
What all share (assay): growth of human tumour cells (NCI), 48 h

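Cells were grown in 96-well plates and exposed to each compound for 48 hours at five concentrations; endpoints were interpolated linearly between bracketing concentrations, or set to the highest concentration if not reached. The concentration for full growth arrest is given as TGI.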

`CCCCCCC(=O)OC[n+]1cccc(-c2c(COC(=O)NC(C)C)c(COC(=O)NC(C)C)c3n2CCC3)c1`: the TGI is over 100 µM with SN12C renal; over 69.8 µM with 786-0 renal; 44.9 µM with A498 renal; over 100 µM in the test on SK-OV-3 ovarian; over 74.1 µM in the test with NCI-H23 lung; over 66.5 µM in the test on CCRF-CEM leukemia. Besides, the TGI is over 100 µM in the test with K-562 leukemia; over 100 µM in the test on UACC-257 melanoma; over 100 µM in the test on T-47D breast; over 100 µM with TK-10 renal; 60.4 µM in the test on SK-MEL-2 melanoma; over 100 µM with HS 578T breast.

As to `C=CC[C@H]1[C@H](O[Si](C)(C)C(C)(C)C)C=CC(=O)[C@@H]1CC(=O)OCC`, the TGI with SN12C renal was 29.9 µM; in the test on 786-0 renal it was 27.6 µM; in the test with A498 renal, 26.6 µM; in the test with SK-OV-3 ovarian it was 34.1 µM; in the test with NCI-H23 lung it was 33.6 µM; in the test on CCRF-CEM leukemia it was 29.9 µM. Further, the TGI stood at 20.4 µM in the test with K-562 leukemia; 17.9 µM in the test on UACC-257 melanoma; 24.7 µM with T-47D breast; 28 µM in the test with TK-10 renal; 28.1 µM in the test on SK-MEL-2 melanoma; 43.4 µM in the test with HS 578T breast.

For `COC(=O)CCC(C)[C@H]1CCC2C3C(C[C@H](OC(C)=O)[C@@]21C)[C@@]1(C)CCC2(C[C@H]1C[C@H]3OC(C)=O)OOC1(CCCCC1)OO2` (some centres not stated), the TGI with SN12C renal is over 100 µM; with 786-0 renal, 48.6 µM; in the test with A498 renal it was over 100 µM; in the test on SK-OV-3 ovarian, over 100 µM; in the test with NCI-H23 lung, over 100 µM; in the test with CCRF-CEM leukemia it was over 100 µM. Besides, the TGI in the test with K-562 leukemia is over 100 µM; in the test with UACC-257 melanoma, over 100 µM; with T-47D breast, over 100 µM; in the test on TK-10 renal, over 100 µM; with SK-MEL-2 melanoma, over 100 µM; with HS 578T breast, 63.5 µM.

For `CC(=O)Nc1nnc(S(=O)(=O)NC(=S)Nc2ccc(Cl)cc2)s1`, the TGI with SN12C renal, in the test on 786-0 renal, with A498 renal, with SK-OV-3 ovarian, in the test on NCI-H23 lung and in the test on CCRF-CEM leukemia was over 100 µM each time. In addition, the TGI in the test on K-562 leukemia, with UACC-257 melanoma, in the test on T-47D breast, in the test with TK-10 renal, in the test with SK-MEL-2 melanoma and with HS 578T breast was over 100 µM each time.

Turning to `CN1CCCC(C(=O)OCC(=O)C2(O)CCC3C4CCC5=CC(=O)CCC5(C)C4C(O)CC32C)C1` (configuration not stated), the TGI with SN12C renal was found to be 24 µM; in the test on 786-0 renal, 14.3 µM; in the test with A498 renal it was 31.6 µM; with SK-OV-3 ovarian, 45.6 µM; in the test with NCI-H23 lung, 46.4 µM; with CCRF-CEM leukemia, 35.6 µM. Further, the TGI in the test with K-562 leukemia was 28.7 µM; in the test on UACC-257 melanoma, 38.2 µM; with T-47D breast, 34.5 µM; with TK-10 renal it was 42.2 µM; with SK-MEL-2 melanoma it was 39.3 µM; in the test with HS 578T breast, over 82.9 µM.

Consider `CC(=O)/C(=C(/Br)I)c1ccccc1`, for which the TGI in the test with SN12C renal is 17.4 µM; in the test with 786-0 renal it was 28 µM; with A498 renal, 28.5 µM; in the test on SK-OV-3 ovarian it was over 64.5 µM; with NCI-H23 lung, 16.8 µM; in the test with CCRF-CEM leukemia it was 11.3 µM. Moreover, the TGI in the test on K-562 leukemia was over 31.6 µM; with UACC-257 melanoma, 25.4 µM; with T-47D breast it was 13.3 µM; in the test with TK-10 renal, 36.3 µM; in the test on SK-MEL-2 melanoma it was 15.7 µM; in the test with HS 578T breast, over 66 µM.

`CC(C)OP(=O)(OC(C)C)C(Nc1cccc(C(F)(F)F)c1)c1ccccc1` (configuration not stated): the TGI with SN12C renal, in the test with 786-0 renal, in the test on A498 renal, in the test with SK-OV-3 ovarian, in the test on NCI-H23 lung and in the test on CCRF-CEM leukemia was over 100 µM each time. The TGI with K-562 leukemia, with UACC-257 melanoma, in the test on T-47D breast, in the test with TK-10 renal, with SK-MEL-2 melanoma and in the test on HS 578T breast was over 100 µM each time.

Regarding `COC(=O)C1(C)OC(C)=NC1(C(=O)OC)C(=O)OC` (configuration not stated), the TGI in the test on SN12C renal is over 100 µM; with 786-0 renal it was over 100 µM; in the test with A498 renal, over 100 µM; in the test with SK-OV-3 ovarian, over 100 µM; with NCI-H23 lung, over 100 µM; with CCRF-CEM leukemia it was over 44 µM. In addition, the TGI in the test on K-562 leukemia, with UACC-257 melanoma, in the test with T-47D breast, in the test with TK-10 renal, with SK-MEL-2 melanoma and with HS 578T breast was over 100 µM each time.

As to `O=c1c(Sc2ncccn2)c(Sc2ncccn2)cnn1CCl`, the TGI with SN12C renal was determined as 9.37 µM; in the test with 786-0 renal it was 4.79 µM; in the test on A498 renal, 36.3 µM; with SK-OV-3 ovarian, 23.2 µM; in the test on NCI-H23 lung, 18.3 µM; in the test on CCRF-CEM leukemia, 7.68 µM. The TGI with K-562 leukemia was found to be 20.5 µM; with UACC-257 melanoma it was 6.77 µM; in the test on T-47D breast it was 14.2 µM; in the test with TK-10 renal, 11.4 µM; with SK-MEL-2 melanoma it was 5.88 µM; in the test on HS 578T breast it was 37 µM.

Regarding `Oc1ccc(Cn2c(-c3ccc(O)cc3)nc3ccccc32)cc1`, the TGI with SN12C renal, with 786-0 renal, in the test with A498 renal, in the test with SK-OV-3 ovarian, in the test on NCI-H23 lung and in the test with CCRF-CEM leukemia was over 100 µM throughout. The TGI in the test with K-562 leukemia, in the test on UACC-257 melanoma, in the test on T-47D breast, with TK-10 renal, with SK-MEL-2 melanoma and in the test with HS 578T breast was over 100 µM each time.

For the molecule `CCOP(=O)(OCC)C(=C1C=C(C(C)(C)C)C(=O)C(C(C)(C)C)=C1)P(=O)(OCC)OCC`, the TGI in the test with SN12C renal is over 10 µM; in the test with 786-0 renal, over 5.51 µM; in the test with A498 renal, over 10 µM; with SK-OV-3 ovarian, over 10 µM; in the test on NCI-H23 lung it was over 10 µM; in the test with CCRF-CEM leukemia it was over 6.32 µM. The TGI was over 7.45 µM in the test with K-562 leukemia; over 10 µM in the test with UACC-257 melanoma; 4.04 µM in the test on T-47D breast; over 7.39 µM in the test with TK-10 renal; over 10 µM in the test on SK-MEL-2 melanoma; over 10 µM with HS 578T breast.
